Source: patent publication US9481709B2, “Boropeptide inhibitors of enteropeptidase and their uses in treatment of obesity, overweight and/or diseases associated with an abnormal fat metabolism” (OBE THERAPY BIOTECHNOLOGY, priority 2007, dated 2016)

Tests used:
[1] = Effect on weight in a model of obesity induced by a hyperlipidic diet; type: in vivo, mice; conditions: 40 mg/kg/day oral; for gain or loss of weight according to the initial weight, mean: high fat diet, Swiss male mice
Experimental: 1. Effect of OBE2001 on Weight
The aim of this first in vivo experiment is to determine the anti-obesity effect of OBE2001 in a model of obesity induced by a hyperlipidic diet in mice.
OBE2001 (Acetyl-Ala-Phe-BoroArg) was provided under salt form (molecular weight of 568.3 g/mol). Swiss male mice, 4 weeks of age, were divided into 2 groups of 10 animals each, receiving the following:
Administration of OBE2001 was carried out as a solution in water. Both OBE2001 or vehicle (water used a negative control) were administrated to the animals daily by the oral route in an administration of 5 ml/kg body weight.
Concerning the feeding of the animals, before the experiments (acclimation period), normal diet (reference No. 824050 SDSIDIETEX food) was available ad libitum during the acclimation period. 7 days before the beginning of the study, a hypercaloric High Fat diet ([…], 4.73 Kcal/g; reference 824053 SDSIDIETEX) was given to groups 1 and 2.
Animals were weighed daily from at D-8 (8 days before the beginning of the experiment) then from D-5 to the end of the study. From D1 (first day of the experiment), food was given ad libitum.

[2] = Effect on triglyceride absorption after oral gavage with clinoleic 20% + cholesterol; type: in vivo, mice; conditions: for triglycerides, area under the curve: 0-360 min
Experimental: 2. Effect of OBE2001 on Triglyceride Absorption The scope of this second in vivo experiment was to analyse the effects of the OBE2001 compound on triglycerides absorption. To that purpose, mice were injected with OBE2001, before and/or after gavage with a solution enriched with cholesterol and free fatty acids (clinoleic at 20%). In this study, 7 week old Swiss CD1 male mice were weighed and randomized for body weight; 3 groups of 5 mice were then constituted of: • Group 1 (solvant): control group. Vehicle (H2O+2% DMSO) at t-5 min+solution A (clinoleic 20%+cholesterol) at t0. • Group 2 (OBE 25+25): OBE2001 25 mg/kg (before and after gavage). OBE2001 25 mg/kg (solution B) at t-5 min+OBE2001 25 mg/kg in solution A (solution C) at t0. • Group 3 (OBE 25): OBE2001 25 mg/kg […]. Vehicle (H2O+2% DMSO) at t-5 min+OBE2001 25 mg/kg in solution A (solution C) at t0. 30 minutes before treatment (with solution A, B or C) blood was collected by retro orbital puncture after a slight anaesthesia (Isoflurane), to determine basal (t0) triglycerides levels. All solutions were then administered by oral gavage at t-5 (vehicle or solution B) or t0 (solution A or C). After administration of the solution A or C (containing fatty acids+cholesterol), blood was collected again by retro orbital puncture after a slight anaesthesia (Isoflurane) at time 60, 120, 180, 300 and 360 minutes for measurement of triglycerides levels. At time 360 minutes, mice were sacrificed.

[3] = Effect on absorption of 14C-proteins after oral administration; type: in vivo; conditions: for Cmax of 14C-protein radioactivity in plasma: control 0.9%±0.27; for AUC mean of 14C-protein radioactivity in plasma: control 2.214±0.1875; for plateau concentration of 14C-protein radioactivity in plasma: 1 h to 4 h post-administration, control 0.5%
Experimental: 3. Effect of OBE2001 on Protein Absorption
This third in vivo experiment was designed to obtain information on the absorption of ^14C-proteins in absence or in presence of OBE2001 at two different doses (5 mg/Kg or 50 mg/Kg) after an oral administration to male Swiss mice.
15 male Swiss (CD-1) mice, 5 weeks-old and having a mean body weight of 0.021±0.002 kg were divided in 3 groups: • Control Group (G1; solvant) containing 5 mice, received water at 5 mL/Kg at t-5 min and ^14C-proteins at 10 mL/Kg at T=0 min; • Group 2 (G2) containing 5 mice (OBE 5 mg/Kg), received OBE2001 at 5 mg/Kg at t-5 min and ^14C-proteins at 10 mL/Kg at T=0 min; • Group 3 (G3) containing […] (OBE 50 mg/Kg), received OBE2001 at 50 mg/Kg at t-5 min and ^14C-proteins at 10 mL/Kg at T=0 min.
A preparation containing 5 ml of Clinoleic 20 (Baxter Ref DDB9500) with 1 g of glucose (Sigma; ref:G8270) and 1 g of casein (Sigma; ref: C3400) was prepared. Water was added until the solution reached 10 ml. After concentration of the radioactive solution containing the ^14C proteins (GE Healthcare; ref: CFA626) (×10), 200 μl of this radioactive solution was added to 2.8 ml of the preparation, in order to reach a concentration of ca 3.3 μCi/ml. The animals were starved before administration of this radioactive preparation. The radioactive preparation was orally administered by intragastric gavage with a single dosing (ca 33.3 μCi/kg) in a volume of ca 10 ml/kg of body weight.
OBE2001 was provided in a mixture of two salts (HCl and TFA) with a 90% purity. OBE2001 was orally administered by intragastric gavage with a single dosing of 5 mg/Kg for G2 and 50 mg/Kg for G3 in a volume of ca 5 mL/kg body-weight.
Plasma aliquots were removed and placed into 6 ml pre-weighed plastic vials, at t+15, t+30, t+60, t+120 and t+240 min. About 4 ml Pico-fluor 40 was added and after shaking, the total radioactivity contained within the different samples was determined by liquid scintillation using a Packard 1900 CA spectrometer equipped with an external standard system (spectral analysis). A quenching curve for calibration purposes was set up using a ^14C quenched set supplied by Packard Instruments.
Liquid scintillation (LS) Counting was carried out with 2 sigma=2%, and for a maximum duration of 5 minutes (according to the method created in the 1900CA® software). Dpm (disintegration per minute) values of less than twice the background level of blank biological medium were reported as BLQ (Below the Limit of Quantitation).

## CC(=O)N[C@@H](C)C(=O)N[C@@H](Cc1ccccc1)C(=O)N[C@@H](CCCNC(=N)N)B1OC2C[C@@H]3C[C@@H](C3(C)C)[C@]2(C)O1 (stereo partly shown) [OBE2001]
[1]; significant from day 4, highly significant from day 8
  weight of treated mice versus control group: significantly lower
[1]; D1
  gain or loss of weight according to the initial weight, mean: -2.7 g
[1]; D2
  gain or loss of weight according to the initial weight, mean: -1.2 g
[1]; D3
  gain or loss of weight according to the initial weight, mean: -0.8 g
[1]; D4
  gain or loss of weight according to the initial weight, mean: 0.2 g
[1]; D5
  gain or loss of weight according to the initial weight, mean: 0.7 g
[1]; D6
  gain or loss of weight according to the initial weight, mean: 1.0 g
[1]; D7
  gain or loss of weight according to the initial weight, mean: 0.9 g
[1]; D8
  gain or loss of weight according to the initial weight, mean: 1.3 g
[1]; D9
  gain or loss of weight according to the initial weight, mean: 1.0 g
[1]; D10
  gain or loss of weight according to the initial weight, mean: 1.1 g
[1]; D11
  gain or loss of weight according to the initial weight, mean: 0.5 g
[1]; D12
  gain or loss of weight according to the initial weight, mean: 1.8 g
[1]; D13
  gain or loss of weight according to the initial weight, mean: 2.0 g
[2]; Group 2, 25+25 mg/kg
  triglycerides, area under the curve: 48559
[2]; Group 3, 25 mg/kg
  triglycerides, area under the curve: 56273
[2]; 25 mg/kg, groups 2 and 3
  triglyceride absorption compared to the control group: decrease in triglyceride absorption
[2]; 60 min, Group 2, 25 mg/kg at t-5 min + 25 mg/kg at t0, oral gavage
  plasma triglycerides, % of basal value: 243.39 % of basal value
[2]; 60 min, Group 3, single 25 mg/kg in solution A at t0, oral gavage
  plasma triglycerides, % of basal value: 293.17 % of basal value
[2]; 120 min, Group 2, 25 mg/kg at t-5 min + 25 mg/kg at t0, oral gavage
  plasma triglycerides, % of basal value: 202.34 % of basal value
[2]; 120 min, Group 3, single 25 mg/kg in solution A at t0, oral gavage
  plasma triglycerides, % of basal value: 269.24 % of basal value
[2]; 180 min, Group 2, 25 mg/kg at t-5 min + 25 mg/kg at t0, oral gavage
  plasma triglycerides, % of basal value: 127.81 % of basal value
[2]; 180 min, Group 3, single 25 mg/kg in solution A at t0, oral gavage
  plasma triglycerides, % of basal value: 126.45 % of basal value
[2]; 300 min, Group 2, 25 mg/kg at t-5 min + 25 mg/kg at t0, oral gavage
  plasma triglycerides, % of basal value: 62.35 % of basal value
[2]; 300 min, Group 3, single 25 mg/kg in solution A at t0, oral gavage
  plasma triglycerides, % of basal value: 70.22 % of basal value
[2]; 360 min, Group 2, 25 mg/kg at t-5 min + 25 mg/kg at t0, oral gavage
  plasma triglycerides, % of basal value: 56.71 % of basal value
[2]; 360 min, Group 3, single 25 mg/kg in solution A at t0, oral gavage
  plasma triglycerides, % of basal value: 60.92 % of basal value
[2]; Group 2/group 1, 25+25 mg/kg, 25 mg/kg
  % of decrease of triglyceride area under the curve versus group 1: 26%
[2]; Group 3/group 1, 25 mg/kg
  % of decrease of triglyceride area under the curve versus group 1: 14%
[3]; 5 mg/kg oral at t-5 min
  Cmax of 14C-protein radioactivity in plasma: 0.58%±0.54 % of administered dose/g
[3]; 5 mg/kg
  AUC mean of 14C-protein radioactivity in plasma: 1.841±0.6402 % dose.h.g-1
  plateau concentration of 14C-protein radioactivity in plasma: 0.4 % administered dose/g
[3]; 50 mg/kg oral at t-5 min
  Cmax of 14C-protein radioactivity in plasma: 0.54%±0.24 % of administered dose/g
[3]; 50 mg/kg
  AUC mean of 14C-protein radioactivity in plasma: 1.718±0.4366 % dose.h.g-1
  plateau concentration of 14C-protein radioactivity in plasma: 0.4 % administered dose/g
[3]; first 30 minutes after protein administration, maintained at least 4 hours
  protein absorption compared to control mice: greatly decreased
[3]; single oral dose 5 or 50 mg/kg, male Swiss mice
  morbidity or mortality: no sign of morbidity or mortality occurred
